Data on 33 compounds can be found in patent US20130324556A1, “Protease Activated Receptor 2 (PAR2) Antagonists” (priority 2011, published 2013).

Structures can show the parent of a compound that is named as a salt.

The target of one test is T1, human PAR2 receptor (Homo sapiens, UniProt P55085).
T1 construct: expressed in transfected cells; host or cells: 1321N1 cells
T1 sequence (P55085 26-397): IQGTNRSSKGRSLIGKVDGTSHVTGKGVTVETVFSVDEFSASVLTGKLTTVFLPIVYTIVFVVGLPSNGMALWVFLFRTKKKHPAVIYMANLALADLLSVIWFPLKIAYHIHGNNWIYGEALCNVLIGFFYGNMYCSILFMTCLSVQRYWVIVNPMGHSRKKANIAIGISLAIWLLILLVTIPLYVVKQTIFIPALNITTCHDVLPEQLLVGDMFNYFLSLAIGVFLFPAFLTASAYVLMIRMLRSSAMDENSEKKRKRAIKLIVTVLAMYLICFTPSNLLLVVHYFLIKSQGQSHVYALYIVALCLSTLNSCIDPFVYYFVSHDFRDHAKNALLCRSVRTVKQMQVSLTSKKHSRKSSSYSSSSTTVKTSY
Description: PAR2 antagonist activity, calcium flux FLIPR assay (trypsin challenge). Format: cell-based.
Settings: not given
As to the method:
The PAR2 receptor couples through the Gq signaling pathway and results in activation of calcium mobilization. The functional activity of test compounds was routinely tested by measuring the ability of compounds to antagonize PAR2 (trypsin challenge) activity in a dose dependent manner, in 1321N1 cells transfected with the human PAR2 receptor, using a calcium flux Fluorescent Imaging Plate Reader FLIPR assay.
Briefly, test compounds were dissolved in DMSO to a concentration of 20 mM and stored in matrix screenmate racks. […] The compounds were then transferred to 384-well assay plates ready for use. […] The assay buffer used was HBSS buffer supplemented with 20 mM HEPES and 0.1% BSA (protease free), pH7.4. The loading/wash buffers were the same as the assay buffer.
Sub-cultivations were performed every 2-3 d. […] After washing, the cells were loaded with Fluo-4 AM dye (Molecular probes) at 2 μM containing 0.48 μg/mL pluronic acid for 60 min at 37° C. under 5% CO2.
A combined agonist/antagonist protocol was used to measure changes in intracellular calcium concentration. Compound (antagonist) was added to the cell plate using a Fluorometric Imaging Plate Reader (FLIPR) (Molecular Devices, Sunnyvale, Calif., USA). Basal fluorescence was recorded every second for 10 seconds prior to compound addition (10 μl) and fluorescence recorded every second for 1 min then every 6 seconds for a further 1 min. Trypsin (EC50 concentration) was then added using the FLIPR and fluorescence recorded as described above. Curve-fitting and parameter estimation were carried out using GraphPad Prism 4.0 (GraphPad Software Inc., San Diego, Calif.).
In the case of `O=C(NCc1ccc2nc[nH]c2c1)N1CCC(Nc2ccc(F)cc2)CC1` [Example 58, N-(1H-1,3-Benzodiazol-6-ylmethyl)-4-[(4-fluorophenyl)amino]piperidine-1-carboxamide], the IC50 lay within 20 to 50 µM.

Staying with this test, now noted: 1321N1 cells transfected with the human PAR2 receptor; trypsin (EC50 concentration) challenge; calcium flux FLIPR; read-out: PAR2 IC50.
Take `NCc1ccc(CNC(=O)N2CCC(n3c(=O)[nH]c4ccccc43)CC2)cc1` [Example 33, N-{[4-(Aminomethyl)phen-yl]methyl}-4-(2-oxo-2,3-dihydro-1H-1,3-benzodiazol-1-yl)piperidine-1-carboxa-mide hydrochloride]: the IC50 fell in the range of 20 to 50 µM. Same read-out and setting: the value for `NCc1ccc(CNC(=O)N2CCC(c3nc4ccccc4o3)CC2)cc1` [Example 34, N-{[4-(Aminomethyl)phen-yl]methyl}-4-(1,3-benzoxazol-2-yl)pipe-ridine-1-carboxamide] was less than 5 µM; that for `NCc1ccc(CNC(=O)N2CCC(Cc3ccccc3)CC2)cc1F` [Example 35, N-{[4-(Aminomethyl)-3-fluorophenyl]methyl}-4-benzylpiperidine-1-carboxamide] was less than 5 µM; that for `N=C(N)c1ccc(CNC(=O)N2CCC(Cc3ccccc3)CC2)cc1` [Example 36, 4-Benzyl-N-[(4-carbamimidoylphenyl)methyl]piperidine-1-carboxamide] was less than 5 µM. Still for that read-out and setting: the value for `CNC(=N)c1ccc(CNC(=O)N2CCC(Cc3ccccc3)CC2)cc1` [Example 37, 2,2,2-Trifluoroacetic acid; 4-benzyl-N-{[4-(N-methylcarbamimidoyl)phen-yl]methyl} piperidine-1-carboxamide] was 20 to 50 µM; that for `CN(C)C(=N)c1ccc(CNC(=O)N2CCC(Cc3ccccc3)CC2)cc1` [Example 38, 2,2,2-Trifluoroacetic acid; 4-benzyl-N-{[4-(N,N-dimethylcar-bamimidoyl)phen-yl]methyl} piperidine-1-carboxamide] was 5 to 20 µM.

Consider `O=C(NCc1ccc(C2=NCCN2)cc1)N1CCC(Cc2ccccc2)CC1` [Example 39, 4-Benzyl-N-{[4-(4,5-dihydro-1H-imidazol-2-yl)phenyl]methyl}piperidine-1-carboxamide], for which the IC50 is 20 to 50 µM. The same measure, in the same setting: for `N=C(N)c1ccc(CNC(=O)N2CCC(Cc3ccncc3)CC2)cc1` [Example 40, N-[(4-Carbamimidoylphen-yl)methyl]-4-(pyridin-4-ylmethyl)piperi-dine-1-carboxamide] the value was less than 5 µM. With `N=C(N)c1ccc(CNC(=O)N2CCC(c3ccccc3)C2)cc1` (stereo not drawn) [Example 41, N-[(4-Carbamimidoylphen-yl)methyl]-3-phenylpyrrolidine-1-carboxamide hydrochloride], the 50% inhibitory concentration (IC50) fell in the range of 5 to 20 µM. Regarding `N=C(N)c1ccc(CNC(=O)N2CCN(Cc3ccccc3)CC2)cc1` [Example 42, 4-Benzyl-N-[(4-carbamimidoylphenyl)meth-yl]piperazine-1-carboxamide dihydrochloride], the IC50 was less than 5 µM. On the same count and under the same terms, for `CN(Cc1ccc(C(=N)N)cc1)C(=O)N1CCC(Cc2ccccc2)CC1` [Example 43, 4-Benzyl-N-[(4-carbamimidoylphenyl)methyl]-N-methylpiperidine-1-carboxamide hydrochloride] the value was 5 to 20 µM; for `N=C(N)c1ccc(CNC(=O)C2CCN(Cc3ccccc3)CC2)cc1` [Example 44, 1-Benzyl-N-[(4-carbamimidoylphenyl)meth-yl]piperidine-4-carboxamide dihydrochloride], 5 to 20 µM; for `N=C(N)c1ccc(CNC(=O)N2CCC(Cc3ccccc3)CC2)cc1F` [Example 45, 4-Benzyl-N-[(4-carbamimidoyl-3-fluorophenyl)meth-yl]piperidine-1-carboxamide hydrochloride], less than 5 µM. Same read-out and setting: for `N=C(N)c1ccc(CNC(=O)N2CCC(Cc3cccc(O)c3)CC2)cc1` [Example 47, N-[(4-Carbamimidoylphen-yl)methyl]-4-[(3-hydroxyphenyl)meth-yl]piperidine-1-carboxamide hydrochloride] the value was less than 5 µM; for `N=C(N)c1ccc(CNC(=O)N2CCC(Cc3ccccc3)CC2)cn1` [Example 50, 4-Benzyl-N-[(6-carbam-imidoylpyridin-3-yl)methyl]piperidine-1-carboxamide hydrochloride], less than 5 µM; for `O=C(NCc1ccc(-c2ncc[nH]2)cc1)N1CCC(Cc2ccccc2)CC1` [Example 51, 4-Benzyl-N-{[4-(1H-imidazol-2-yl)phenyl]methyl}piperidine-1-carboxamide], 20 to 50 µM. Still for that read-out and setting: for `O=C(NCc1ccc2nc[nH]c2c1)N1CCC(Cc2ccccc2)CC1` [Example 52, N-(1H-1,3-Benzodiazol-6-ylmethyl)-4-benzylpiperidine-1-carboxamide] the value was 5 to 20 µM; for `O=C(NCc1cc2cnccc2[nH]1)N1CCC(Cc2ccccc2)CC1` [Example 53, 4-Benzyl-N-{1H-pyrrolo[3,2-c]pyridin-2-ylmethyl}piperidine-1-carboxamide], 20 to 50 µM. Take `Cn1cnc2ccc(CNC(=O)N3CCC(Cc4ccccc4)CC3)cc21` [Example 54, 4-Benzyl-N-[(1-methyl-1H-1,3-benzodiazol-6-yl)methyl]piperidine-1-carboxamide]: the IC50 is 50 to 100 µM. On the same count and under the same terms, for `O=C(NCc1ccc2nc[nH]c2c1)N1CCC(Oc2ccc(F)cc2)CC1` [Example 55, N-(1H-1,3-Benzodiazol-6-ylmethyl)-4-(4-fluorophenoxy)piperidine-1-carboxamide] the value was 20 to 50 µM. Same read-out and setting: the value for `COc1ccc(CC2CCN(C(=O)NCc3ccc4nc[nH]c4c3)CC2)cc1` [Example 56, N-(1H-1,3-Benzodiazol-6-ylmethyl)-4-[(4-methoxyphenyl)methyl] piperidine-1-carboxamide] was 20 to 50 µM. The same measure, in the same setting: the value for `O=C(NCc1ccc2nc[nH]c2c1)N1CCC(Cc2ccncc2)CC1` [Example 57, N-(1H-1,3-Benzodiazol-6-ylmethyl)-4-(pyridin-4-ylmethyl)piperidine-1-carboxamide] was 20 to 50 µM; that for `O=C(NCc1ccc2nc[nH]c2c1)N1CCC(c2ccccc2)C1` (stereo not drawn) [Example 59, 2,2,2-Trifluoroacetic acid; N-(1H-1,3-benzodiazol-5-ylmethyl)-3-phenylpyrrolidine-1-carboxamide] was 5 to 20 µM; that for `O=C(NCc1ccc2nc[nH]c2c1)N1CCC(Cc2ccccc2)C1` (stereo not drawn) [Example 60, 2,2,2-Trifluoroacetic acid; N-(1H-1,3-benzodiazol-5-ylmethyl)-3-benzylpyrrolidine-1-carboxamide] was 5 to 20 µM. Turning to `O=C(NCc1ccc2nn[nH]c2c1)N1CCC(Cc2ccccc2)CC1` [Example 61, N-(1H-1,2,3-Benzotriazol-6-ylmethyl)-4-benzylpiperidine-1-carboxamide], the IC50 lay in the range of 50 to 100 µM. As for `Nc1nc2ccc(CNC(=O)N3CCC(Cc4ccccc4)CC3)cc2[nH]1` [Example 62, N-[(2-Amino-1H-1,3-benzodiazol-6-yl)methyl]-4-benzylpiperidine-1-carboxamide], the IC50 was 5 to 20 µM.

For `N=C(N)Nc1ccc(CNC(=O)N2CCC(Cc3ccccc3)CC2)cc1` [Example 63, 2,2,2-Trifluoroacetic acid; 4-benzyl-N-[(4-carbamimidamidophenyl)methyl]piperidine-1-carboxamide], the IC50 lay within 5 to 20 µM. The same measure, in the same setting: the value for `O=C(NCc1ccc2c(c1)CNC2)N1CCC(Cc2ccccc2)CC1` [Example 64, 4-Benzyl-N-(2,3-dihydro-1H-isoindol-5-ylmeth-yl)piperidine-1-carboxamide] was 5 to 20 µM; that for `O=C(NCc1ccc2c(c1)CNC2)N1CCC(Cc2ccncc2)CC1` [Example 65, N-(2,3-Dihydro-1H-isoindol-5-ylmethyl)-4-(pyridin-4-ylmethyl)piperidine-1-carboxamide dihydrochloride] was 50 to 100 µM; that for `O=C(NCc1ccc2c(c1)CNC2)N1CCC(Oc2ccc(F)cc2)CC1` [Example 66, N-(2,3-Dihydro-1H-isoindol-5-ylmethyl)-4-(4-fluorophenoxy) piperidine-1-carboxamide hydrochloride] was 20 to 50 µM.

For `NCc1cccc(CNC(=O)N2CCC(Cc3ccccc3)CC2)c1` [Example 67, N-{[3-(Aminometh-yl)phen-yl]methyl}-4-benzylpiperidine-1-carboxamide], the IC50 lay within 50 to 100 µM. Same read-out and setting: the value for `NCCCCCNC(=O)N1CCC(Cc2ccccc2)CC1` [Example 68, N-(5-Aminopentyl)-4-benzylpiperidine-1-carboxamide] was 20 to 50 µM.
